Measurements reported in patent US8969395B2, “Triterpenoid derivatives useful as antiproliferative agents” (Universidade de Coimbra, priority 2009, dated 2015).

Assays:
Assay type in all cases: cell-based
[1] = system: HepG2 (human hepatocellular carcinoma); assay: Cytotoxic activity, MTT assay, HepG2; settings: 72 h, mean ±SD
How it was run: (§1)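 HepG2, HeLa and Chang liver cells (8×10^3, 1×10^3, 5×10^3 cells/well) pre-grown 24 h, treated 72 h in triplicate (DMSO <0.1%), MTT 0.5 mg/ml 1 h, read 550 nm. Jurkat (5.5×10^3 cells/well) treated 72 h, XTT 4 h, read 450 nm. IC50 as mean±SD of at least three experiments.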

Jurkat (human leukemia) = assay: Cytotoxic activity, XTT assay, Jurkat; settings: 72 h, mean ±SD
How it was run: as §1

[2] = system: HeLa (human cervical adenocarcinoma); assay: Cytotoxic activity, MTT assay, HeLa; settings: 72 h, mean ±SD
[3] = system: Chang liver (human normal liver cells); assay: Cytotoxic activity against non-tumoral cell line, MTT assay; settings: 72 h, mean ±SD
Method: The cytotoxic of compounds of formulas (I) and (II) 14-50 was assessed towards human cancer (HepG2, HeLa and Jurkat) cell lines (Table 3 below). Compounds presented on Table 4 were also tested against a non-tumoral liver cell line (Chang liver). The cell viability of HeLa, HepG2 and Chang liver cells was determined by the MTT assay. Briefly, exponentially growing cells were plated in 96-well plates at a density of 1×10^3, 8×10^3 and 5×10^3 cells/well respectively and incubated for 24 h before treatment. The grown medium was replaced with one contained the tested compounds dissolved in DMSO (final DMSO concentration <0.1%) at different concentrations, in triplicate wells, and cells were incubated for 72 h. After incubation with the compounds, the medium was removed and MTT solution (0.5 mg/ml, 100 μl) was added to each well and the plates were incubated again for 1 h. DMSO (100 μl) was then added to dissolve the formazan crystals and the plates were immediately read at 550 nm on an ELISA plate reader (Tecan Sunrise MR20-301, TECAN, Austria). For the Jurkat cells, the cell viability was determined by the XTT assay. Briefly, exponentially growing cells were plated in 96-well plates at a density of 5.5×10^3 cells/well, treated with different concentrations of compounds in triplicate and incubated for 72 h. After incubation with the compounds the XTT labeling mixture (100 μl) were added to each of the wells and after a 4 h incubation period the plates were read at 450 nm on an ELISA plate reader. […] Known for its cytotoxic activity, betulinic acid 2 was used as a positive control in this experimentation. […] All the IC50 results represent an average of a minimum of three experiments and were expressed as means±standard deviation (SD).

[4] = system: LAPC4 (human prostate adenocarcinoma); assay: Cytotoxic activity, LAPC4; settings: mean ±SD
Method: (§2) Compounds presented in Table 6 were also tested in the following cell lines: PC-3 (human prostate adenocarcinoma), LNCaP (human prostate adenocarcinoma), LAPC4 (human prostate adenocarcinoma) and HT-29 (human colon adenocarcinoma).

[5] = system: LNCaP (human prostate adenocarcinoma); assay: Cytotoxic activity, LNCaP; settings: mean ±SD
Method: as §2

[6] = system: PC-3 (human prostate adenocarcinoma); assay: Cytotoxic activity, PC-3; settings: mean ±SD
Method: as §2

Row | Structure (SMILES) | IC50 [1] | IC50 (Jurkat (human leukemia)) | IC50 [2] | IC50 [3] | IC50 [4] | IC50 [5] | IC50 [6]
1 | C=C(C)[C@@H]1CC[C@]2(C(=O)n3ccnc3)CC[C@]3(C)[C@H](CC[C@@H]4[C@@]5(C)C=CC(=O)C(C)(C)[C@@H]5CC[C@]43C)[C@@H]12 [Compound 46, 28-(1H-imidazol-1-yl)-lup-1,20 (29)-dien-3,28-dione] | 1.7 ± 0.2 µM | 2.3 ± 0.3 µM | 3 ± 0.2 µM | 55.9 ± 4.6 µM |  |  | 
2 | C=C(C)[C@@H]1CC[C@]2(C(=O)n3ccnc3)CC[C@]3(C)[C@H](CC[C@@H]4[C@@]5(C)CCC(=O)C(C)(C)[C@@H]5CC[C@]43C)[C@@H]12 [Compound 44, 28-(1H-imidazol-1-yl)-lup-20(29)-en-3,28-dione] | 0.8 ± 0.05 µM | 1.4 ± 0.2 µM | 2 ± 0.3 µM | 48.8 ± 2.8 µM | 17.2 ± 2.3 µM | 13.7 ± 0.5 µM | 6.9 ± 1.1 µM
3 | C=C(C)[C@@H]1CC[C@]2(CO)CC[C@]3(C)[C@H](CC[C@@H]4[C@@]5(C)CC[C@H](OC(=O)n6ccnc6)C(C)(C)[C@@H]5CC[C@]43C)[C@@H]12 [Compound 20, 28-hydroxy-lup-20(29)-en-3β-yl-1H-imidazole-1-carboxylate] | 2 ± 0.4 µM | 11.1 ± 1.3 µM | 3 ± 0.2 µM | 60.7 ± 3.8 µM | 16.4 ± 2.1 µM | 15 ± 1.8 µM | 9.2 ± 0.7 µM
